Reference: PubChem BioAssay AID2060898 (Molecular Pharmacology Branch, DTP, NCI, 2025)

System: 616215-338-R-J1-PDC complex spheroid viability
Assay: Anticancer human tumor 616215-338-R-J1-PDC patient-derived colon adenocarcinoma cell line growth inhibition [RAS]
Settings: for IC50: curve of first compound; for viability, T/C: stronger effect = lower value
Procedure, shortened: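 Multi-cell-type spheroids: tumor cells plus HUVEC endothelial cells and mesenchymal stem cells. RAS-pathway inhibitors were combined with targeted agents, each dosed in half-log steps down from clinical Cmax, or from 10 microM when Cmax was unknown.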

[1] = second compound 0.0316 µM, first compound 0.0316 µM
[2] = second compound 0.0316 µM, first compound 0.1 µM
[3] = second compound 0.0316 µM, first compound 0.316 µM
[4] = second compound 0.0316 µM, first compound 1 µM
[5] = second compound 0.0316 µM, first compound 3.16 µM
[6] = second compound 0.0316 µM, first compound 10 µM
[7] = second compound 0.1 µM, first compound 0.0316 µM
[8] = second compound 0.1 µM, first compound 0.1 µM
[9] = second compound 0.1 µM, first compound 0.316 µM
[10] = second compound 0.1 µM, first compound 1 µM
[11] = second compound 0.1 µM, first compound 3.16 µM
[12] = second compound 0.1 µM, first compound 10 µM
[13] = second compound 0.316 µM, first compound 0.0316 µM
[14] = second compound 0.316 µM, first compound 0.1 µM
[15] = second compound 0.316 µM, first compound 0.316 µM
[16] = second compound 0.316 µM, first compound 1 µM
[17] = second compound 0.316 µM, first compound 3.16 µM
[18] = second compound 0.316 µM, first compound 10 µM
[19] = second compound 1 µM, first compound 0.0316 µM
[20] = second compound 1 µM, first compound 0.1 µM
[21] = second compound 1 µM, first compound 0.316 µM
[22] = second compound 1 µM, first compound 1 µM
[23] = second compound 1 µM, first compound 3.16 µM
[24] = second compound 1 µM, first compound 10 µM
[25] = second compound 3.16 µM, first compound 0.0316 µM
[26] = second compound 3.16 µM, first compound 0.1 µM
[27] = second compound 3.16 µM, first compound 0.316 µM
[28] = second compound 3.16 µM, first compound 1 µM
[29] = second compound 3.16 µM, first compound 3.16 µM
[30] = second compound 3.16 µM, first compound 10 µM
[31] = second compound 10 µM, first compound 0.0316 µM
[32] = second compound 10 µM, first compound 0.1 µM
[33] = second compound 10 µM, first compound 0.316 µM
[34] = second compound 10 µM, first compound 1 µM
[35] = second compound 10 µM, first compound 3.16 µM
[36] = second compound 10 µM, first compound 10 µM
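Further: spheroids exposed to agents for seven days before viability readout.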
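Wherever viability, T/C is given: 100% = DMSO vehicle control viability.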

## CC1(O)CCCC1n1c(=O)c(C(F)F)cc2cnc(NC3CCN(S(C)(=O)=O)CC3)nc21 (stereo not drawn) + C#Cc1c(F)ccc2cc(O)cc(-c3ncc4c(N5CC6CCC(C5)N6)nc(OCC56CCCN5CC(F)C6)nc4c3F)c12
Second compound 0.0316 µM
  IC50: 1.07 µM
Second compound 0.1 µM
  IC50: 0.924 µM
Second compound 0.316 µM
  IC50: 0.833 µM
Second compound 1 µM
  IC50: 0.255 µM
Second compound 3.16 µM
  IC50: 0.132 µM
Second compound 10 µM
  IC50: 0.044 µM
[1]
  viability, T/C: 110%
[2]
  viability, T/C: 114%
[3]
  viability, T/C: 53.5%
[4]
  viability, T/C: 49.1%
[5]
  viability, T/C: 45.4%
[6]
  viability, T/C: 1.06%
[7]
  viability, T/C: 107%
[8]
  viability, T/C: 118%
[9]
  viability, T/C: 50.2%
[10]
  viability, T/C: 46.8%
[11]
  viability, T/C: 39.4%
[12]
  viability, T/C: 0.75%
[13]
  viability, T/C: 117%
[14]
  viability, T/C: 112%
[15]
  viability, T/C: 54.5%
[16]
  viability, T/C: 44%
[17]
  viability, T/C: 37.9%
[18]
  viability, T/C: 2.34%
[19]
  viability, T/C: 111%
[20]
  viability, T/C: 94.2%
[21]
  viability, T/C: 38.8%
[22]
  viability, T/C: 45.9%
[23]
  viability, T/C: 50.5%
[24]
  viability, T/C: 0.81%
[25]
  viability, T/C: 90.4%
[26]
  viability, T/C: 49.9%
[27]
  viability, T/C: 29.8%
[28]
  viability, T/C: 35.8%
[29]
  viability, T/C: 31.4%
[30]
  viability, T/C: 2.44%
[31]
  viability, T/C: 59.5%
[32]
  viability, T/C: 23.7%
[33]
  viability, T/C: 26.1%
[34]
  viability, T/C: 22.2%
[35]
  viability, T/C: 21.8%
[36]
  viability, T/C: 1.18%

## CCC(CC)c1cc(NC2CCC(N)C2)n2nccc2n1 (stereo not drawn) + C#Cc1c(F)ccc2cc(O)cc(-c3ncc4c(N5CC6CCC(C5)N6)nc(OCC56CCCN5CC(F)C6)nc4c3F)c12
Second compound 0.0316 µM
  IC50: 1.78 µM
Second compound 0.1 µM
  IC50: 1.78 µM
Second compound 0.316 µM
  IC50: 1.84 µM
Second compound 1 µM
  IC50: 1.85 µM
Second compound 3.16 µM
  IC50: 1.51 µM
Second compound 10 µM
  IC50: 1.24 µM
[1]
  viability, T/C: 102%
[2]
  viability, T/C: 98.3%
[3]
  viability, T/C: 109%
[4]
  viability, T/C: 99.3%
[5]
  viability, T/C: 0.29%
[6]
  viability, T/C: 1.51%
[7]
  viability, T/C: 104%
[8]
  viability, T/C: 105%
[9]
  viability, T/C: 96.3%
[10]
  viability, T/C: 99.9%
[11]
  viability, T/C: 0.27%
[12]
  viability, T/C: 0.21%
[13]
  viability, T/C: 112%
[14]
  viability, T/C: 111%
[15]
  viability, T/C: 101%
[16]
  viability, T/C: 106%
[17]
  viability, T/C: 0.21%
[18]
  viability, T/C: 1.88%
[19]
  viability, T/C: 105%
[20]
  viability, T/C: 110%
[21]
  viability, T/C: 113%
[22]
  viability, T/C: 106%
[23]
  viability, T/C: 1.09%
[24]
  viability, T/C: 1.83%
[25]
  viability, T/C: 115%
[26]
  viability, T/C: 111%
[27]
  viability, T/C: 121%
[28]
  viability, T/C: 77.7%
[29]
  viability, T/C: 0.19%
[30]
  viability, T/C: 1.03%
[31]
  viability, T/C: 83.3%
[32]
  viability, T/C: 74.5%
[33]
  viability, T/C: 108%
[34]
  viability, T/C: 61.3%
[35]
  viability, T/C: 3.3%
[36]
  viability, T/C: 0.3%

## Cc1nc(N2CCC3(CC2)COC(C)C3N)c(CO)nc1Sc1ccnc(N)c1Cl (stereo not drawn) + C#Cc1c(F)ccc2cc(O)cc(-c3ncc4c(N5CC6CCC(C5)N6)nc(OCC56CCCN5CC(F)C6)nc4c3F)c12
Second compound 0.0316 µM
  IC50: > 10 µM
Second compound 0.1 µM
  IC50: > 10 µM
Second compound 0.316 µM
  IC50: 5.23 µM
Second compound 1 µM
  IC50: 0.537 µM
Second compound 3.16 µM
  IC50: 0.302 µM
Second compound 10 µM
  IC50: 0.182 µM
[1]
  viability, T/C: 99.5%
[2]
  viability, T/C: 108%
[3]
  viability, T/C: 116%
[4]
  viability, T/C: 95.2%
[5]
  viability, T/C: 88.5%
[6]
  viability, T/C: 67.8%
[7]
  viability, T/C: 101%
[8]
  viability, T/C: 113%
[9]
  viability, T/C: 104%
[10]
  viability, T/C: 79.6%
[11]
  viability, T/C: 68%
[12]
  viability, T/C: 63.1%
[13]
  viability, T/C: 113%
[14]
  viability, T/C: 116%
[15]
  viability, T/C: 98.3%
[16]
  viability, T/C: 75.3%
[17]
  viability, T/C: 57.7%
[18]
  viability, T/C: 42.1%
[19]
  viability, T/C: 98.2%
[20]
  viability, T/C: 97.2%
[21]
  viability, T/C: 52.7%
[22]
  viability, T/C: 48.5%
[23]
  viability, T/C: 48.2%
[24]
  viability, T/C: 43.7%
[25]
  viability, T/C: 88.8%
[26]
  viability, T/C: 67.9%
[27]
  viability, T/C: 49.2%
[28]
  viability, T/C: 49.9%
[29]
  viability, T/C: 41.2%
[30]
  viability, T/C: 54.1%
[31]
  viability, T/C: 52.2%
[32]
  viability, T/C: 61.4%
[33]
  viability, T/C: 43.8%
[34]
  viability, T/C: 37%
[35]
  viability, T/C: 34.6%
[36]
  viability, T/C: 33%

## NC1c2ccccc2OC12CCN(c1cnc3c(N4CCCc5ncccc54)n[nH]c3n1)CC2 (stereo not drawn) + C#Cc1c(F)ccc2cc(O)cc(-c3ncc4c(N5CC6CCC(C5)N6)nc(OCC56CCCN5CC(F)C6)nc4c3F)c12
Second compound 0.0316 µM
  IC50: 4.63 µM
Second compound 0.1 µM
  IC50: 4.73 µM
Second compound 0.316 µM
  IC50: 1.97 µM
Second compound 1 µM
  IC50: 0.198 µM
Second compound 3.16 µM
  IC50: 0.0347 µM
Second compound 10 µM
  IC50: < 0.0316 µM
[1]
  viability, T/C: 128%
[2]
  viability, T/C: 112%
[3]
  viability, T/C: 75.9%
[4]
  viability, T/C: 81.6%
[5]
  viability, T/C: 67.6%
[6]
  viability, T/C: 29.6%
[7]
  viability, T/C: 123%
[8]
  viability, T/C: 105%
[9]
  viability, T/C: 88.5%
[10]
  viability, T/C: 61.8%
[11]
  viability, T/C: 56.6%
[12]
  viability, T/C: 43.4%
[13]
  viability, T/C: 114%
[14]
  viability, T/C: 84.4%
[15]
  viability, T/C: 63.2%
[16]
  viability, T/C: 55.1%
[17]
  viability, T/C: 49.2%
[18]
  viability, T/C: 32.4%
[19]
  viability, T/C: 88.6%
[20]
  viability, T/C: 59.5%
[21]
  viability, T/C: 43%
[22]
  viability, T/C: 33.8%
[23]
  viability, T/C: 43%
[24]
  viability, T/C: 26.6%
[25]
  viability, T/C: 50.5%
[26]
  viability, T/C: 44.5%
[27]
  viability, T/C: 50.7%
[28]
  viability, T/C: 39%
[29]
  viability, T/C: 35.6%
[30]
  viability, T/C: 35.7%
[31]
  viability, T/C: 40%
[32]
  viability, T/C: 44.4%
[33]
  viability, T/C: 36.2%
[34]
  viability, T/C: 29.5%
[35]
  viability, T/C: 33.4%
[36]
  viability, T/C: 31.6%
